Measured values taken from patent US7619086B2 (Merck & Co., Inc., priority 2004, dated 2009).

Assays:
[1] = molecular target: T1, HIV integrase (recombinant integrase) (Human immunodeficiency virus type 1 group M subtype B, UniProt P04585); experiment: HIV integrase assay: strand transfer catalyzed by recombinant integrase; type: biochemical; settings: per WO 02/30930, read-out: IC50, inhibition of strand transfer activity of integrase
T1 construct: Assays for the strand transfer activity of integrase were conducted in accordance with WO 02/30930 for recombinant integrase
Procedure: Assays for the strand transfer activity of integrase were conducted in accordance with WO 02/30930 for recombinant integrase.
Further description on conducting the assay using preassembled complexes is found in Wolfe, A. L. et al., J. Virol. 1996, 70: 1424-1432, Hazuda et al., J. Virol. 1997, 71: 7005-7011; Hazuda et al., Drug Design and Discovery 1997, 15: 17-24; and Hazuda et al., Science 2000, 287: 646-650.

HIV = experiment: Assay for inhibition of HIV replication (acute HIV infection of T-lymphoid cells); type: cell-based; settings: Human immunodeficiency virus 1
Procedure: Assays for the inhibition of acute HIV infection of T-lymphoid cells were conducted in accordance with Vacca, J. P. et al., Proc. Natl. Acad. Sci. USA 1994, 91: 4096.

For `O=C1C2=C(O)C(=O)N(C3CC3)CC2CCN1Cc1ccc(F)c(Cl)c1` (racemic) [Example 18, 2-(3-Chloro-4-fluorobenzyl)-8-hydroxy-6-cyclopropyl-2,3,4,4a,5,6-hexahydro-2,6-naphthyridine-1,7-dione], the IC50 [1] was ≤ 1 µM and the IC95 (HIV) was ≤ 10 µM.

`CC[C@@H]1[C@@H]2CCN(Cc3ccc(F)cc3)C(=O)C2=C(O)C(=O)N1C` (relative stereo) [Example 6, (Cis-4a,5)-5-Ethyl-2-(4-fluorobenzyl)-8-hydroxy-6-methyl-2,3,4,4a,5,6-hexahydro-2,6-naphthyridine-1,7-dione] was tested, and the IC50 [1] was ≤ 1 µM and the IC95 (HIV) was ≤ 10 µM.

For `CC[C@@H]1[C@H]2CCN(Cc3ccc(F)cc3)C(=O)C2=C(O)C(=O)N1C` (relative stereo) [Example 7, (Trans-4a,5)-5-Ethyl-2-(4-fluorobenzyl)-8-hydroxy-6-methyl-2,3,4,4a,5,6-hexahydro-2,6-naphthyridine-1,7-dione], the IC50 [1] was ≤ 1 µM and the IC95 (HIV) was ≤ 10 µM.

In the case of `CN1C(=O)C(O)=C2C(=O)N(Cc3ccc(F)cc3)CCC2C1C(=O)OC(C)(C)C` (single isomer, unassigned) [Example 4, 5-(tert-Butyloxycarbonyl)-2-(4-fluorobenzyl)-8-hydroxy-6-methyl-2,3,4,4a,5,6-hexahydro-2,6-naphthyridine-1,7-dione], the IC50 [1] is reported as ≤ 1 µM and the IC95 (HIV) is reported as ≤ 10 µM.

`CN1C(=O)C(O)=C2C(=O)N(Cc3ccc(F)cc3)CCC2C1c1ncccn1` (single isomer, unassigned) [first eluting enantiomer of Example 17, 5-(Pyrimidin-2-yl)-2-(4-fluorobenzyl)-8-hydroxy-6-methyl-2,3,4,4a,5,6-hexahydro-2,6-naphthyridine-1,7-dione] was tested, and the IC50 [1] was ≤ 1 µM and the IC95 (HIV) was ≤ 10 µM.

In the case of `CN1CC2CCN(Cc3ccc(F)cc3)C(=O)C2=C(O)C1=O` (stereo not drawn) [Example 1, 2-(4-Fluorobenzyl)-8-hydroxy-6-methyl-2,3,4,4a,5,6-hexahydro-2,6-naphthyridine-1,7-dione], the IC50 [1] is reported as ≤ 1 µM and the IC95 (HIV) is reported as ≤ 10 µM.

With `CN1C(=O)C(O)=C2C(=O)N(Cc3ccc(F)cc3)CCC2C1(C)C` (stereo not drawn) [Example 2, 2-(4-Fluorobenzyl)-8-hydroxy-5,5,6-trimethyl-2,3,4,4a,5,6-hexahydro-2,6-naphthyridine-1,7-dione] the IC50 [1] was ≤ 1 µM and the IC95 (HIV) was ≤ 10 µM.

For `CN1CC2(c3ccccc3)CCN(Cc3ccc(F)cc3)C(=O)C2=C(O)C1=O` (stereo not drawn) [Example 3, 2-(4-Fluorobenzyl)-8-hydroxy-6-methyl-4-a-phenyl-2,3,4,4a,5,6-hexahydro-2,6-naphthyridine-1,7-dione], the IC50 [1] was ≤ 1 µM and the IC95 (HIV) was ≤ 10 µM.

In the case of `CCC1NC(=O)C(O)=C2C(=O)N(Cc3ccc(F)cc3)CCC21` (stereo not drawn) [Example 5], the IC50 [1] is reported as ≤ 1 µM and the IC95 (HIV) is reported as ≤ 10 µM.

In the case of `CC1(C)C2CCN(Cc3ccc(F)cc3)C(=O)C2=C(O)C(=O)N1CC1CC1` (stereo not drawn) [Example 8, 6-(Cyclopropylmethyl)-2-(4-fluorobenzyl)-8-hydroxy-5,5-dimethyl-2,3,4,4a,5,6-hexahydro-2,6-naphthyridine-1,7-dione], the IC50 [1] is reported as ≤ 1 µM and the IC95 (HIV) is reported as ≤ 10 µM.

With `CN(C)C(=O)C1C2CCN(Cc3ccc(F)cc3)C(=O)C2=C(O)C(=O)N1C` (stereo not drawn) [Example 9, 5-(Dimethylaminocarbonyl)-2-(4-fluorobenzyl)-8-hydroxy-6-methyl-2,3,4,4a,5,6-hexahydro-2,6-naphthyridine-1,7-dione] the IC50 [1] was ≤ 1 µM and the IC95 (HIV) was ≤ 10 µM.

In the case of `CN1C(=O)C(O)=C2C(=O)N(Cc3ccc(F)c(Cl)c3)CCC2C1(C)C` (stereo not drawn) [Example 10], the IC50 [1] is reported as ≤ 1 µM and the IC95 (HIV) is reported as ≤ 10 µM.

For `CN1C(=O)C(O)=C2C(=O)N(Cc3ccc(F)cc3)CCC2C12CCCC2` (stereo not drawn) [Example 11], the IC50 [1] was ≤ 1 µM and the IC95 (HIV) was ≤ 10 µM.

In the case of `CN1C(=O)C(O)=C2C(=O)N(Cc3ccc(F)c(F)c3)CCC2C1(C)C` (stereo not drawn) [Example 12], the IC50 [1] is reported as ≤ 1 µM and the IC95 (HIV) is reported as ≤ 10 µM.

For `CN1C(=O)C(O)=C2C(=O)N(Cc3ccc(F)cc3)CCC2C12CCC2` (stereo not drawn) [Example 13], the IC50 [1] was ≤ 1 µM and the IC95 (HIV) was ≤ 10 µM.

With `CC(C)CNC(=O)C1C2CCN(Cc3ccc(F)cc3)C(=O)C2=C(O)C(=O)N1C` (stereo not drawn) [Example 14] the IC50 [1] was ≤ 1 µM and the IC95 (HIV) was ≤ 10 µM.

In the case of `CN1C(=O)C(O)=C2C(=O)N(Cc3ccc(F)cc3)CCC2C1C(=O)NC(C)(C)C` (stereo not drawn) [Example 15], the IC50 [1] is reported as ≤ 1 µM and the IC95 (HIV) is reported as ≤ 10 µM.

With `CN1C(=O)C(O)=C2C(=O)N(Cc3ccc(F)cc3)CCC2C1C(=O)NCc1ccccn1` (stereo not drawn) [Example 16] the IC50 [1] was ≤ 1 µM and the IC95 (HIV) was ≤ 10 µM.
